Drawing on patent publication US20050203065A1, “Method of treating ischemia reperfusion injury using adenosine receptor antagonists” (priority 2002, published 2005), this text covers Ki for 18 molecules.

Molecules are shown by their SMILES.

The assay concerns the target T1, human A2B adenosine receptors (Homo sapiens, UniProt P29275).
T1 sequence (P29275 1-332): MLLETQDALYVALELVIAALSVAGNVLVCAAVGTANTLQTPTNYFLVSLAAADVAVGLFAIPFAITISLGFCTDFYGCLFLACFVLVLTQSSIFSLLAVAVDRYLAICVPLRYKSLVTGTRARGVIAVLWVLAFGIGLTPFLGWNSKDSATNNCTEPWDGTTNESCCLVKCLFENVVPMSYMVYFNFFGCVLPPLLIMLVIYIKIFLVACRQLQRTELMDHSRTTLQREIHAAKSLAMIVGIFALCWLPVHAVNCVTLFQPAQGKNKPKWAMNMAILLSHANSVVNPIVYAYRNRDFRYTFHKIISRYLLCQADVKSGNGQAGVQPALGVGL
The assay is described as follows: Radioligand competitive binding, ADENOSINE A2B (HEK293), [3H]-DPCPX (Table 8). Particulars: [3H]-DPCPX 30-40 nM. Set-up: purchased Receptor Biology; host or cells: HEK 293. As to the method: Membranes (50 μg membrane protein), radioligands, and varying concentrations of competing ligands were incubated in triplicate in 0.1 mL buffer HE plus 2 units/mL adehosine, deaminase for 2 hours at 21° C. The radioligand used for competitive binding assays for human A2B adenosine receptors was [^3H]-8-cyclopentyl-1,3-dipropyxanthine ([^3H]-DPCPX, 30-40 nM) (NEN, Boston, Mass.). Nonspecific binding was measured in the presence of 10 μM 5′N-ethylcarboxamidoadenosine (NECA; from RBI-Sigma, Natick, Mass.). Binding assays were terminated by filtration over Whatman GF/C glass fiber filters using a BRANDEL cell harvester (Gaithersburg, Md.). The filters were rinsed three times with 3 to 4 mL ice-cold 10 mM Tris-HCl, pH 7.4 and 5 mM magnesium chloride (MgCl2) at 4° C. and were counted in a Wallac β-counter (Perkin Elmer, Boston, Mass.).
Competitive binding data were fit to a single site binding model and plotted using Prizm GraphPad. The Cheng-Prusoff equation KI=IC50/(1+[I]/KD) was used to calculate KI values from IC50 values, where KI is the affinity constant for the competing ligand, [I] is the concentration of the free radioligand, and KD is the affinity constant for the radioligand (Cheng and Prusoff 1973).
As usually defined, the Ki is the equilibrium dissociation constant of an inhibitor or competing ligand from its target. Read a low Ki as a stronger hold on the target. As to `CCCn1c(=O)c2[nH]c(C3C4CC5C(C4CCCN(C)C)C53)nc2n(CCC)c1=O` (stereo not drawn) [Compound 1], the affinity, expressed as Ki, was 14.6 nM. The figure for `CCCn1c(=O)c2[nH]c(C34CCC(OCC(=O)O)(CC3)C4)nc2n(CCC)c1=O` [Compound 2] is 15.2 nM; for `CCCn1c(=O)c2[nH]c(-c3ccc(C#N)cc3)c(O)c2n(CCC)c1=O` [Compound 3] it is 27 nM; for `CCCn1c(=O)c2[nH]c(C34CCC(CN(C)C)(CC3)CC4)nc2n(CCN)c1=O` [Compound 4] it is 39 nM. With `CCCn1c(=O)c2[nH]c(C34CCC(O[C@@H](C)C(=O)O)(CC3)CC4)nc2n(CCC)c1=O` [Compound 5] the figure was 45.1 nM; with `CCCn1c(=O)c2[nH]c(C34CCCC(O)(CC3)CC4)nc2n(CCC)c1=O` [Compound 6], 47 nM; with `CCCn1c(=O)c2[nH]c(C34CCC(CCC(=O)O)(CC3)CC4)nc2n(CCC)c1=O` [Compound 7], 51.4 nM.

Molecule `CCCn1c(=O)c2[nH]c(C34CCC(CN)(CC3)CC4)nc2n(CCC)c1=O` [Compound 8] returned a Ki of 55.2 nM. The Ki values of the last two molecules are within 1.5-fold of each other.

In the case of `CCCn1c(=O)c2[nH]c(C34CCC(O)C(CC3)C4)nc2n(CCC)c1=O` (stereo not drawn) [Compound 9], the Ki worked out at 76.9 nM. The figure for `CCCn1c(=O)c2nc(C34CCC(CCC(=O)Nc5nnn[nH]5)(CC3)CC4)[nH]c2n(CCC)c1=O` [Compound 10] is 85.6 nM; for `CCCn1c(=O)c2[nH]c(C3CC4CCC(C3)C4NCC(=O)OCC)nc2n(CCC)c1=O` (stereo not drawn) [Compound 11] it is 93 nM. With `CCCn1c(=O)c2[nH]c(C34CCC(/C=C/C(=O)O)(CC3)CC4)nc2n(CCC)c1=O` [Compound 12] the figure was 100 nM. The figure for `CCCn1c(=O)c2[nH]c(C34CCC(/C=C/C(=O)O)(CC3)OC4)nc2n(CCC)c1=O` [Compound 13] is 117 nM. For the molecule `CCCn1c(=O)c2[nH]c(C34CCC(OCCC(=O)O)(CC3)C4)nc2n(CCC)c1=O` [Compound 14], the Ki was found to be 125 nM. On to `CCCn1c(=O)c2nc(C34CCC(CCCC(=O)O)(CC3)CC4)[nH]c2n(CCC)c1=O` [Compound 15], for which the Ki was 127 nM. With `CCCn1c(=O)c2nc(C34CCC(C5=NOC(C(=O)O)C5)(CC3)CC4)[nH]c2n(CCC)c1=O` (stereo not drawn) [Compound 16] the figure was 131 nM; with `CCCn1c(=O)c2[nH]c(C34CCC(CCc5nnn[nH]5)(CC3)CC4)nc2n(CCC)c1=O` [Compound 17], 160 nM. Consider `CCCn1c(=O)c2[nH]c(C34CCCC(OCC(=O)O)(CC3)CC4)nc2n(CCC)c1=O` [Compound 18], for which the Ki was 168 nM.
